PMC5147891 (PLoS ONE, 2016)
“And” between values parts separate entries of the source, which are not always exact repeats. Equal values may be shown once. Read-outs that look alike come from different tables or passages of the source. Marks after values point to notes of the source that are not given here.

Legend:
[1] = chronic administration, cited from earlier work
hCB2 receptors [2] = molecular target: T1, hCB2 receptors (Homo sapiens, UniProt P34972); assay: Forskolin-stimulated intracellular [3H]cAMP in intact CHO-hCB2 cells; assay type: cell-based; conditions: for EMAX, intracellular [3H]cAMP: forskolin-stimulated cAMP; for EMAX, intracellular [3H]cAMP / EC50: values only approximate
T1 construct: expressed in transfected cells
Method: CHO-hCB1, CHO-hCB2, or CHO-hMOR cells were plated separately in normal culture media into 24-well plates at a density of 6 × 10^6 cells/plate and incubated overnight at 37°C in 5% CO2. As previously described, the following day culture media was removed from each well and replaced with 500 μl pre-incubation mixture containing either HAM’s F-12 K (CHO-hCB1) or DMEM (CHO-hCB2 and CHO-hMOR) with 0.9% NaCl, 500 μM 3-isobutyl-1-methylxathine (IBMX) and 2 μCi/well [^3H]adenine. Cells were incubated for 3–5 hr at 37°C. The pre-incubation mix was removed and indicated concentrations of drugs were added to the individual wells for 15 min at 37°C in a Krebs-Ringer-HEPES solution (10 mM HEPES, 110mM NaCl, 25mM Glucose, 55mM Sucrose, 5mM KCl, 1mM MgCl2, 1.8 mM CaCl2, pH 7.4) containing IBMX, and 10 μM forskolin. Reactions were terminated by adding 50 μl 2.2N HCl and [^3H]cAMP was isolated by employing alumina column chromatography. Radioactivity contained in 4 ml of the final column eluate was counted by a Packard-Tri-carb 2100/TR liquid scintillation counter after adding 10 ml of liquid scintillation cocktail.
To determine if modulation of adenylyl cyclase activity by SERMs was mediated through CB2 receptors coupling to Gi/o proteins, additional cAMP assays were conducted following overnight treatment with pertussis toxin as described elsewhere. Briefly, CHO-hCB2 cells were seeded into 24-well plates as described above in normal culture media containing 100 ng/ml of pertussis toxin and incubated overnight at 37°C. Pertussis toxin-treated media was removed and measurement of intracellular [^3H]cAMP levels following indicated SERM treatments was conducted as described above.
(§1) Data presented are expressed as mean ± standard error of the mean (S.E.M.) for a minimum of three experiments, each performed in triplicate. GraphPad Prism version 6.0f (GraphPad Software Inc.) was used for all curve-fitting and statistical analyses. Non-linear regression for one-site competition was used to determine the IC50 for competition receptor binding. IC50 values were subsequently converted to Ki values (a measure of receptor affinity) by the Cheng-Prusoff equation [31]. Non-linear regression was also used to analyze concentration-effect curves to determine the EC50 or IC50 (measures of potency) and Emax or Imax (measures of efficacy) for GTPγS binding and adenylyl cyclase experiments, respectively. All dissociation constants and measurements of potency were converted to pKi, pKB, pEC50, or pIC50 values by taking the negative log of each value so that parametric tests could be used for statistical comparisons. To compare three or more groups, statistical significance of the data was determined by a one-way ANOVA, followed by post hoc comparisons using a Tukey's or Dunnett's test. To compare two groups, the non-paired Student's t-test was used.

hCB2 receptors [3] = molecular target: T1, hCB2 receptors; assay: Antagonism of CP-55,940 inhibition of AC activity in intact CHO-hCB2 cells; assay type: cell-based; conditions: for IMAX of CP-55,940, intracellular [3H]cAMP: CP-55,940 alone or after pre-incubation with AM-630 1 μM
Method: (§2) After overnight seeding into 24-well plates and pre-incubation of cells with [^3H]adenine for 3–5 hr at 37°C as described above, media was removed and the indicated concentration of the SERM to be tested was added to all wells of the 24-well plate. […] Reactions were terminated and [^3H]cAMP isolated as described above.
as §1

hCB2 receptors [4] = molecular target: T1, hCB2 receptors; assay: [35S]GTPγS binding (G-protein activity), CHO-hCB2 membranes; assay type: biochemical; conditions: 10 μM
Method: (§3) CHO-hCB1, CHO-hCB2 and CHO-hMOR cells were homogenized individually with 10 complete strokes utilizing a 7ml Dounce glass homogenizer in an ice-cold buffer containing 50 mM HEPES pH 7.4, 3 mM MgCl2, and 1 mM EDTA as described previously. The homogenized samples were then centrifuged at 40,000 × g for 10 min at 4°C. Supernatants were discarded; the pellets re-suspended in the buffer, homogenized again, and centrifuged similarly twice more. After the final centrifugation step, supernatants were discarded and pellets were re-suspended in ice-cold 50 mM HEPES, pH 7.4 to achieve an approximate protein concentration of 10 mg/ml. Membrane homogenates were divided into aliquots and stored at −80°C for future use. A small aliquot of each membrane preparation was removed prior to freezing and the protein concentration was determined using BCA Protein Assay (Thermo Fisher Scientific, Waltham, MA).
The GTPγS binding assay to measure G-protein activation was performed as previously described. Briefly, in a total volume of 1 ml, 25 μg of CHO-hCB2, 50 μg of CHO-hCB1-Rx or 50 μg of CHO-hMOR membranes homogenates were added to each reaction mixture containing 0.1 nM [^35S]GTPγS, 20 mM HEPES, 10 mM MgCl2, 100 mM NaCl, 10 μM GDP, 0.1% bovine serum albumin and the indicated concentrations of ligand to be examined. After mixing, reaction mixtures were incubated at 30°C for 30 min. […] Nonspecific binding was defined by the amount of radioactivity remaining in the presence of 10 μM non-radiolabeled GTPγS. […] Four ml of scintiverse scintillation fluid (Fisher Scientific, Waltham, MA) was added to the filters and the amount of radioactivity was quantified 24 hr later utilizing liquid scintillation spectrophotometry.
Data presented are expressed as mean ± standard error of the mean (S.E.M.) for a minimum of three experiments, each performed in triplicate. […] To compare three or more groups, statistical significance of the data was determined by a one-way ANOVA, followed by post hoc comparisons using a Tukey's or Dunnett's test. […]

hCB1 receptors [5] = molecular target: T2, hCB1 receptors (Homo sapiens, UniProt P21554); assay: [35S]GTPγS binding (G-protein activity), CHO-hCB1 membranes; assay type: biochemical
Method: as §3
The GTPγS binding assay to measure G-protein activation was performed as previously described. Briefly, in a total volume of 1 ml, 25 μg of CHO-hCB2, 50 μg of CHO-hCB1-Rx or 50 μg of CHO-hMOR membranes homogenates were added to each reaction mixture containing 0.1 nM [^35S]GTPγS, 20 mM HEPES, 10 mM MgCl2, 100 mM NaCl, 10 μM GDP, 0.1% bovine serum albumin and the indicated concentrations of ligand to be examined. After mixing, reaction mixtures were incubated at 30°C for 30 min. […] Nonspecific binding was defined by the amount of radioactivity remaining in the presence of 10 μM non-radiolabeled GTPγS. Reactions were terminated by rapid vacuum filtration through glass fiber filters followed by four washes with ice cold 50 mM HEPES (pH 7.4) containing 0.1% bovine serum albumin. Four ml of scintiverse scintillation fluid (Fisher Scientific, Waltham, MA) was added to the filters and the amount of radioactivity was quantified 24 hr later utilizing liquid scintillation spectrophotometry.
as §1, with “All dissociation constants and measurements of potency were converted to pKi, pKB, pEC50, or pIC50 values by taking the negative log of each value so that parametric tests could be used for statistical comparisons.” left out, “To compare two groups, the non-paired Student's t-test was used.” left out

hCB2 receptors [6] = molecular target: T1, hCB2 receptors; assay: Competition receptor binding with [3H]CP-55,940, CHO-hCB2 membranes; conditions: [3H]CP-55,940 binding, CHO-hCB2, 0.2 nM [3H]CP-55,940, CHO-hCB2 membranes
Method: as §3
(§4) Competition receptor binding was performed as reported earlier. […] The total volume of the incubation mixture was 1 ml. All reactions were mixed and allowed to reach equilibrium binding by incubation at room temperature for 90 min. […] Binding was terminated by rapid vacuum filtration through glass fiber filters (Brandel, Gaithersburg, MD), followed by four 5 ml washes of ice-cold 50 mM Tris-HCl (pH 7.4) buffer containing 0.1% bovine serum albumin. Four ml of scintiverse scintillation fluid (Fisher Scientific, Waltham, MA) was added to the filters and the amount of radioactivity was quantified 24 hr later utilizing liquid scintillation spectrophotometry.
as §1

hCB1 receptors [7] = molecular target: T2, hCB1 receptors; assay: Competition receptor binding with [3H]CP-55,940, CHO-hCB1 membranes; conditions: for Ki: [3H]CP-55,940 binding, CHO-hCB1, 0.2 nM [3H]CP-55,940, CHO-hCB1 membranes; for Selectivity (CB1/CB2): ratio hCB1-Ki/hCB2-Ki
Method: as §3, §4, §1

ERs = conditions: ref [23], [24]; cited from earlier work
hCB1 receptors [8] = molecular target: T2, hCB1 receptors; assay: Antagonism of CP-55,940 inhibition of AC activity in intact CHO-hCB1 cells; assay type: cell-based; conditions: for Type of antagonism of CP-55,940 / IMAX of CP-55,940, intracellular [3H]cAMP: CHO-hCB1 cells; for Kb: read-out: Kb (antagonist dissociation constant); for IMAX of CP-55,940, intracellular [3H]cAMP: CP-55,940 alone or after pre-incubation with AM-281 1 μM, Z-Tam 30 μM, Z-4OHT 10 μM, Z-End 30 μM
Method: as §2, §1

[9] = molecular target: T3, human mu-opioid receptors (hMOR) (Homo sapiens, UniProt P35372); assay: [35S]GTPγS binding (G-protein activity), CHO-hMOR membranes; assay type: biochemical; conditions: 10 μM
T3 construct: expressed in transfected cells
Method: as §3, with “Membrane homogenates were divided into aliquots and stored at −80°C for future use.” left out
The GTPγS binding assay to measure G-protein activation was performed as previously described. […] Nonspecific binding was defined by the amount of radioactivity remaining in the presence of 10 μM non-radiolabeled GTPγS. […] Four ml of scintiverse scintillation fluid (Fisher Scientific, Waltham, MA) was added to the filters and the amount of radioactivity was quantified 24 hr later utilizing liquid scintillation spectrophotometry.
Data presented are expressed as mean ± standard error of the mean (S.E.M.) for a minimum of three experiments, each performed in triplicate. […]

[10] = increase of forskolin-stimulated cAMP
[11] = Z-Tam 10 μM, Z-4OHT 10 μM, Z-End 30 μM
[12] = against CP-55,940, AM-630 1 μM, Z-Tam 10 μM, Z-4OHT 10 μM, read-out: Kb (antagonist dissociation constant)

T1 sequence (P34972 whole entry): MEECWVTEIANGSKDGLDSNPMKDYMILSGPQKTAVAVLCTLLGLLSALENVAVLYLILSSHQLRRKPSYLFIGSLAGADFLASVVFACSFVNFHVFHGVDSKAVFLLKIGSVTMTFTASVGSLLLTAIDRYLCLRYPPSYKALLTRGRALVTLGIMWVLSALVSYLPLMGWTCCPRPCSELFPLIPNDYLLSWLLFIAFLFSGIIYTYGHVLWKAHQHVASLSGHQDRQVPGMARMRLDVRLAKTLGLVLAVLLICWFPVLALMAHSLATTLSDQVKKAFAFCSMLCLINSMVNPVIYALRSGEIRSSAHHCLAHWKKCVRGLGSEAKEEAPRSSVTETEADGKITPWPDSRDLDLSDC
T2 sequence (P21554 whole entry): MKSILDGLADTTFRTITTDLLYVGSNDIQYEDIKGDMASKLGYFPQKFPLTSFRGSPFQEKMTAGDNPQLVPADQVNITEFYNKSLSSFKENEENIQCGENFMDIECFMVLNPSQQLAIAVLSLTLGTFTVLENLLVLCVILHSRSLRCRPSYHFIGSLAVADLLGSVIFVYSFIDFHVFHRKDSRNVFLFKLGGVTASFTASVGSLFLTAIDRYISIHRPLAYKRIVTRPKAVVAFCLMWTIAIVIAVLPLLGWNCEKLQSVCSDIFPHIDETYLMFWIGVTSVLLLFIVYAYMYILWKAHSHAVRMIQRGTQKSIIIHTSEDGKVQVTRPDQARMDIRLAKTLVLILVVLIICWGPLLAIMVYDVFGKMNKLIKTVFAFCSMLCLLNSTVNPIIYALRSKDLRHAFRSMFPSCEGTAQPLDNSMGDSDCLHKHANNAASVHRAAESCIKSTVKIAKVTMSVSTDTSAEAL
T3 sequence (P35372 whole entry): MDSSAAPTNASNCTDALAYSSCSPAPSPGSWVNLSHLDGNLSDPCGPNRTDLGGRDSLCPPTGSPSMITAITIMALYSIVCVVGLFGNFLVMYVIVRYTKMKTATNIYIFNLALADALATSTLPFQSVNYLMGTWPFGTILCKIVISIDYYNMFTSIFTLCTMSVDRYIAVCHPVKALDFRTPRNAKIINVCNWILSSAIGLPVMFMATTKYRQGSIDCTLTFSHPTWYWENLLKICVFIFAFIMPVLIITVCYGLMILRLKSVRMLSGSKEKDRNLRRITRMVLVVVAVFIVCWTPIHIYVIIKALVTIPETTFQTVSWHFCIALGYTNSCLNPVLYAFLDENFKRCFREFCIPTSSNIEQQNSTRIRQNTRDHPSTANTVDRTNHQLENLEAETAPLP

Row | Structure (SMILES) | EMAX, intracellular [3H]cAMP (hCB2 receptors [2]) | EC50 (hCB2 receptors [2]; [10]) [nM] | Type of antagonism of CP-55,940 (hCB2 receptors [3]) | IMAX, decrease in basal G-protein activity ([35S]GTPγS binding) (hCB2 receptors [4]) [%] | Ki (hCB2 receptors [6]) [nM] | Ki (hCB1 receptors [7]) [nM] | Selectivity (CB1/CB2) (hCB1 receptors [7]) | Type of antagonism of CP-55,940 (hCB1 receptors [8]) | further results
1 | CC/C(=C(\c1ccc(O)cc1)c1ccc(OCCN(C)C)cc1)c1ccccc1 [4OHT, 4-hydroxytamoxifen] | – | – | – | – | – | – | – | – | Concentration reached in serum ([1]; ref [40]): high nanomolar concentrations; Levels accumulated in brain and breast tissue ([1]; ref [65], [66]): micromolar range
2 | COc1ccc(C(=O)c2c(C)n(CCN3CCOCC3)c3cc(I)ccc23)cc1 [AM-630] | 214 ± 6.5% | 398 | parallel rightward-shift | 28.7 | – | – | – | – | pEC50, intracellular [3H]cAMP (hCB2 receptors [2]; increase of forskolin-stimulated cAMP, mean ± SEM): 6.40 ± 0.096; IMAX of CP-55,940, intracellular [3H]cAMP (hCB2 receptors [3]; [11]): 31.7 ± 0.3^a %; pKb (hCB2 receptors [3]; against CP-55,940, AM-630 1 μM, Z-Tam 10 μM, Z-4OHT 10 μM): 7.26 ± 0.064; Kb (hCB2 receptors [3]; against CP-55,940, AM-630 1 μM, Z-Tam 10 μM, Z-4OHT 10 μM, listed as +AM-630, read-out: Kb (antagonist dissociation constant)): 55 nM; Kb (hCB2 receptors [3]; [12]): 55.4 nM
3 | CC/C(=C(\c1ccc(O)cc1)c1ccc(OCCN(C)C)cc1)c1ccccc1 [E-4OHT, 4-hydroxytamoxifen] | 352 ± 52^a^,^b % | 9120 | – | – | 957 | 1240 | 1.30 | – | Effect on basal [35S]GTPγS binding (hCB1 receptors [5]; 10 μM): did not significantly alter
4 | CC/C(=C(/c1ccc(O)cc1)c1ccc(OCCNC)cc1)c1ccccc1 [E-End, 4-hydroxy-N-desmethyl tamoxifen] | 239 ± 22^b % | 10700 | – | – | 2350 | 1390 | 0.59 | – | –
5 | CC/C(=C(\c1ccccc1)c1ccc(OCCN(C)C)cc1)c1ccccc1 [E-Tam, tamoxifen] | 464 ± 48^a^, ^†† % | – | – | 49.7 ± 1.5 | – | – | – | – | Functional activity at ERs (ERs): ER agonist
6 | CC/C(=C(\c1ccc(O)cc1)c1ccc(OCCN(C)C)cc1)c1ccccc1 [Z-4OHT, 4-hydroxytamoxifen] | 323 ± 37^a^,^b % | 4900 | surmountable antagonism | – | 495 | 681 | 1.38 | surmountable antagonism | Kb (hCB2 receptors [3]; [12]): 856 nM and 851 nM; Kb (hCB1 receptors [8]): 4680 nM
7 | CC/C(=C(\c1ccc(O)cc1)c1ccc(OCCNC)cc1)c1ccccc1 [Z-End, 4-hydroxy-N-desmethyl tamoxifen] | 259 ± 18^b % | 11500 | insurmountable | – | 2390 | 1160 | 0.49^†† | surmountable antagonism | Shift-to-the-right in potency (IC50) of CP-55,940 (hCB2 receptors [3]; Z-End 30 μM): > 8 fold; Kb (hCB1 receptors [8]): 2570 nM
8 | CC/C(=C(\c1ccccc1)c1ccc(OCCN(C)C)cc1)c1ccccc1 [Z-Tam, tamoxifen] | 374 ± 24^a^,^b^, ^††† % | – | surmountable antagonism | 65.1± 3.0 | – | – | – | insurmountable | inhibition at 10 µM (hCB1 receptors [5]; read-out: IMAX, inhibition of basal [35S]GTPγS binding): 50.8 ± 2.7%; Decrease in [35S]GTPγS binding [9]: 11.3%; IMAX of CP-55,940, intracellular [3H]cAMP (hCB2 receptors [3]; [11]): 32.3 ± 0.7^a %; IMAX of CP-55,940, intracellular [3H]cAMP (hCB1 receptors [8]): 23.0%; IMAX of CP-55,940, intracellular [3H]cAMP (hCB1 receptors [8]; listed as +Z-Tam): 23.0 ± 0.5^b %; Functional activity at ERs (ERs): ER antagonist
